Reference: the NIST ThermoML archive (doi:10.1016/j.jct.2007.11.013)

Experiment: xn = mol fraction of the nth substance listed
Conditions: Liquid, Bellows volumetry

CC(C)C [2-methylpropane] + CCCC
mass density [kg/m3]
Conditions | 280 K | 320 K | 360 K | 400 K | 440 K
1000 kPa, x2 = 0.2656 | 580.73 | 530.15 | – | – | –
1000 kPa, x2 = 0.4913 | 585.41 | 535.84 | – | – | –
1000 kPa, x2 = 0.7508 | 589.56 | 541.44 | – | – | –
2000 kPa, x2 = 0.2656 | 582.43 | 532.88 | 469.97 | – | –
2000 kPa, x2 = 0.4913 | 586.92 | 538.41 | 478.17 | – | –
2000 kPa, x2 = 0.7508 | 590.9 | 543.79 | – | – | –
3000 kPa, x2 = 0.2656 | 583.92 | 535.39 | 475.52 | – | –
3000 kPa, x2 = 0.4913 | 588.36 | 540.81 | 483.1 | 385.11 | –
3000 kPa, x2 = 0.7508 | 592.32 | 546.12 | 490.53 | 402.2 | –
5000 kPa, x2 = 0.2656 | 587.09 | 540.14 | 484.88 | 406.75 | –
5000 kPa, x2 = 0.4913 | 591.12 | 545.4 | 491.8 | 417.26 | –
5000 kPa, x2 = 0.7508 | 594.99 | 550.35 | 498.56 | 427.6 | –
10000 kPa, x2 = 0.2656 | 593.89 | 550.53 | 502.82 | 446.63 | 376.07
10000 kPa, x2 = 0.4913 | 597.45 | 555.38 | 508.78 | 453.53 | 384.46
10000 kPa, x2 = 0.7508 | 601.36 | 559.85 | 514.37 | 460.33 | 393.12
20000 kPa, x2 = 0.2656 | 605.71 | 567.26 | 527.7 | 485.47 | 441.9
20000 kPa, x2 = 0.4913 | 608.98 | 571.45 | 532.51 | 490.78 | 447.31
20000 kPa, x2 = 0.7508 | 612.32 | 575.19 | 537.18 | 495.66 | 452.37
30000 kPa, x2 = 0.2656 | 615.41 | 580.65 | 545.48 | 509.52 | 474.54
30000 kPa, x2 = 0.4913 | 618.89 | 584.41 | 549.98 | 514.15 | 479.02
30000 kPa, x2 = 0.7508 | 621.81 | 587.77 | 554.09 | 518.42 | 483.18
40000 kPa, x2 = 0.2656 | 624.41 | 591.82 | 559.82 | 527.48 | 497.07
40000 kPa, x2 = 0.4913 | 627.45 | 595.5 | 563.9 | 531.91 | 501.25
40000 kPa, x2 = 0.7508 | 630.16 | 598.52 | 567.64 | 535.63 | 504.89
50000 kPa, x2 = 0.2656 | 632.48 | 601.55 | 571.85 | 542.19 | 514.8
50000 kPa, x2 = 0.4913 | 635.21 | 605.01 | 575.77 | 546.27 | 518.55
50000 kPa, x2 = 0.7508 | 637.79 | 607.82 | 579.14 | 549.67 | 521.88
60000 kPa, x2 = 0.2656 | 639.66 | 610.3 | 582.32 | 554.58 | 529.25
60000 kPa, x2 = 0.4913 | 642.4 | 613.74 | 586.24 | 558.4 | 532.82
60000 kPa, x2 = 0.7508 | 644.7 | 616.38 | 589.35 | 561.67 | 535.99
70000 kPa, x2 = 0.2656 | 646.31 | 618.47 | 591.65 | 565.35 | 541.79
70000 kPa, x2 = 0.4913 | 648.87 | 621.47 | 595.42 | 569.18 | 545.18
70000 kPa, x2 = 0.7508 | 650.96 | 623.97 | 598.27 | 572.18 | 548.23
80000 kPa, x2 = 0.2656 | 652.53 | 625.51 | 599.96 | 575 | 552.55
80000 kPa, x2 = 0.4913 | 654.98 | 628.69 | 603.53 | 578.67 | 556.07
80000 kPa, x2 = 0.7508 | 656.95 | 631.01 | 606.56 | 581.7 | 558.93
90000 kPa, x2 = 0.2656 | 658.15 | 632.18 | 607.66 | 583.7 | 562.49
90000 kPa, x2 = 0.4913 | 660.76 | 635.21 | 611.18 | 587.47 | 565.64
90000 kPa, x2 = 0.7508 | 662.63 | 637.49 | 613.96 | 590.11 | 568.41
100000 kPa, x2 = 0.2656 | 663.68 | 638.57 | 614.79 | 591.48 | 571.02
100000 kPa, x2 = 0.4913 | 666.14 | 641.34 | 618.14 | 595.11 | 574.54
100000 kPa, x2 = 0.7508 | 667.99 | 643.48 | 620.9 | 598.02 | 577.23
120000 kPa, x2 = 0.2656 | 673.84 | 649.73 | 627.56 | 605.85 | 586.73
120000 kPa, x2 = 0.4913 | 675.91 | 652.68 | 630.84 | 609.08 | 590.02
120000 kPa, x2 = 0.7508 | 677.69 | 654.79 | 633.4 | 611.77 | 592.51
140000 kPa, x2 = 0.2656 | 682.73 | 660.13 | 638.86 | 618.11 | 600.22
140000 kPa, x2 = 0.4913 | 685.03 | 662.76 | 642.02 | 621.57 | 603.26
140000 kPa, x2 = 0.7508 | 686.69 | 664.53 | 644.56 | 623.93 | 605.8
160000 kPa, x2 = 0.2656 | 691.28 | 669.26 | 649.01 | 628.97 | 612.2
160000 kPa, x2 = 0.4913 | 693.26 | 672 | 652.16 | 632.55 | 615.27
160000 kPa, x2 = 0.7508 | 694.86 | 673.62 | 654.38 | 634.89 | 617.59
180000 kPa, x2 = 0.2656 | 699.06 | 677.76 | 658.15 | 639.19 | 622.95
180000 kPa, x2 = 0.4913 | 700.72 | 680.38 | 661.25 | 642.45 | 625.93
180000 kPa, x2 = 0.7508 | 702.34 | 681.89 | 663.57 | 644.7 | 628.15
200000 kPa, x2 = 0.2656 | 706.05 | 685.47 | 666.71 | 648.34 | 632.67
200000 kPa, x2 = 0.4913 | 708 | 687.99 | 669.76 | 651.4 | 635.69
200000 kPa, x2 = 0.7508 | 709.43 | 689.51 | 672.02 | 653.9 | 637.8
